ChEMBL document CHEMBL3039007, “Structure-based identification of OATP1B1/3 inhibitors” (Mol Pharmacol, 2013)

Tests used:
[1] = molecular target: T1, Solute carrier organic anion transporter family member 1B1 (Homo sapiens, UniProt Q9Y6L6); details: chinese hamster, cho, 10 µM
T1 sequence (Q9Y6L6 whole entry): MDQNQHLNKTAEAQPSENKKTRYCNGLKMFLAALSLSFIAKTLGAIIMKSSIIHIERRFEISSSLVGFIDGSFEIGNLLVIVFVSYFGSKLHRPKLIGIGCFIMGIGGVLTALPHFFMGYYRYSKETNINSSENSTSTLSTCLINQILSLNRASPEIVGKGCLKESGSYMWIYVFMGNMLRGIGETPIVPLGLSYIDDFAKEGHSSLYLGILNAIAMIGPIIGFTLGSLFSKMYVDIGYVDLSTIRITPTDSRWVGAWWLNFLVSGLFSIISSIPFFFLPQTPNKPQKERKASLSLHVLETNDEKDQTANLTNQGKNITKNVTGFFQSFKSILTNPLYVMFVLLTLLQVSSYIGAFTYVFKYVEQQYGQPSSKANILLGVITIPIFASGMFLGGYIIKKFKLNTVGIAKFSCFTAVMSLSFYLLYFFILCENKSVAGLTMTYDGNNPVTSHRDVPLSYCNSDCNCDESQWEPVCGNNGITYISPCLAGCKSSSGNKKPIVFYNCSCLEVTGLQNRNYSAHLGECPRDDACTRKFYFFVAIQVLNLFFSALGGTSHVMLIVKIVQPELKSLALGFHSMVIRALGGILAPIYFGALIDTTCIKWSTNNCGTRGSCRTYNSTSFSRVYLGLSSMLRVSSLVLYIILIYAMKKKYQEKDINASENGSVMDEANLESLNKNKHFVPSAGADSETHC

[2] = molecular target: T2, Solute carrier organic anion transporter family member 1B3 (Homo sapiens, UniProt Q9NPD5); details: chinese hamster, cho, 10 µM
T2 sequence (Q9NPD5 whole entry): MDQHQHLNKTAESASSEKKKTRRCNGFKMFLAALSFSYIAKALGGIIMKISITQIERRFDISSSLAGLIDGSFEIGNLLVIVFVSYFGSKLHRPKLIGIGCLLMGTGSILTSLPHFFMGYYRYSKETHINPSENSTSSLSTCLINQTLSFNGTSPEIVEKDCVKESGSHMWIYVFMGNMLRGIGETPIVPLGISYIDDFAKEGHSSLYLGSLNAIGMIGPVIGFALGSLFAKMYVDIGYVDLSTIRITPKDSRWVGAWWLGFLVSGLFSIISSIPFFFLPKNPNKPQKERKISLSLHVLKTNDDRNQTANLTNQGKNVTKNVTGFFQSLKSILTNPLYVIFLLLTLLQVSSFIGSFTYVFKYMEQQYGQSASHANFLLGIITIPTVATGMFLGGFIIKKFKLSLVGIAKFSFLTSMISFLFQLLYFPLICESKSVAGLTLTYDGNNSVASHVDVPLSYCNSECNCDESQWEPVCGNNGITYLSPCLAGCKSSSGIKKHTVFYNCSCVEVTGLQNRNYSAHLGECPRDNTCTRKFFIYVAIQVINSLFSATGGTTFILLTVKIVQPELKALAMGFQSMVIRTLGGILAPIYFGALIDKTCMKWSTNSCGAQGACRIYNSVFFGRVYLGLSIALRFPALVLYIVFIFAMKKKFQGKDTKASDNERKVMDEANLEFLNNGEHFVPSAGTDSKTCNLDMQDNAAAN

| SMILES | residual activity [1] | residual activity [2] |
| --- | --- | --- |
| CC(C(=O)O)c1ccc2c(c1)[nH]c1ccc(Cl)cc12 (centres undefined) [CARPROFEN] | 47.72% | 77.78% |
| CC(=O)Oc1cc(OC(C)=O)c2c(c1)O[C@H](c1ccc(OC(C)=O)c(OC(C)=O)c1)[C@@H](OC(C)=O)C2 [CATECHIN PENTAACETATE] | 82.47% | 104.9% |
| O=C(Oc1cc(OC(=O)c2ccccc2)c2c(c1)O[C@H](c1ccc(OC(=O)c3ccccc3)c(OC(=O)c3ccccc3)c1)[C@@H](OC(=O)c1ccccc1)C2)c1ccccc1 [CATECHIN PENTABENZOATE] | 113.2% | 118.6% |
| COc1cc(O)c(C(=O)c2ccccc2)cc1O [CEAROIN] | 91.48% | 120.9% |
| CC1(C)C(=O)C=C[C@@]2(C)C1=C(O)C(=O)[C@]1(C)[C@@H]2CC[C@@]2(C)[C@H](c3ccoc3)C[C@H]3O[C@]321 [CEDRELONE] | 44.73% | 60.66% |
| C[C@@H]1CC[C@H]2C(C)(C)[C@H]3C[C@@]12CC[C@@]3(C)O [CEDROL] | 119.8% | 107.7% |
| CC(=O)O[C@]1(C)CC[C@@]23C[C@H]1C(C)(C)[C@@H]2CC[C@H]3C [CEDRYL ACETATE] | 134% | 116.5% |
| N[C@@H](C(=O)N[C@@H]1C(=O)N2C(C(=O)O)=C(Cl)CS[C@H]12)c1ccccc1 [CEFACLOR ANHYDROUS] | 84.74% | 114.4% |
| CC1=C(C(=O)O)N2C(=O)[C@@H](NC(=O)[C@H](N)c3ccc(O)cc3)[C@H]2SC1 [CEFADROXIL] | 88.52% | 101.2% |
| Cn1nnnc1SCC1=C(C(=O)[O-])N2C(=O)[C@@H](NC(=O)[C@H](OC=O)c3ccccc3)[C@H]2SC1.[Na+] [CEFAMANDOLE NAFATE] | 63% | 64.97% |
| Cc1nnc(SCC2=C(C(=O)[O-])N3C(=O)[C@@H](NC(=O)Cn4cnnn4)[C@H]3SC2)s1.[Na+] [CEFAZOLIN SODIUM] | 84.25% | 95.92% |
| CO/N=C(\C(=O)N[C@@H]1C(=O)N2C(C(=O)OCOC(=O)C(C)(C)C)=C(/C=C\c3scnc3C)CS[C@H]12)c1csc(N)n1 [CEFDITOREN PIVOXIL] | 64.03% | 82.75% |
| CO[C@@]1(NC(=O)CSCC#N)C(=O)N2C(C(=O)[O-])=C(CSc3nnnn3C)CS[C@@H]21.[Na+] [CEFMETAZOLE SODIUM] | 123.3% | 108.6% |
| CO/N=C(\C(=O)N[C@@H]1C(=O)N2C(C(=O)[O-])=C(COC(C)=O)CS[C@H]12)c1csc(N)n1.[Na+] [CEFOTAXIME SODIUM] | 104.1% | 119.2% |
| CO[C@@]1(NC(=O)Cc2cccs2)C(=O)N2C(C(=O)[O-])=C(COC(N)=O)CS[C@@H]21.[Na+] [CEFOXITIN SODIUM] | 68.58% | 82.79% |
| NC(=O)c1cc[n+](CC2=C(C(=O)[O-])N3C(=O)[C@@H](NC(=O)[C@@H](c4ccccc4)S(=O)(=O)[O-])[C@H]3SC2)cc1.[Na+] [CEFSULODIN SODIUM] | 91.84% | 101.2% |
| Nc1nc(/C(=C/CC(=O)O)C(=O)N[C@@H]2C(=O)N3C(C(=O)O)=CCS[C@H]23)cs1 [CEFTIBUTEN] | 90.54% | 84.47% |
| CO/N=C(\C(=O)N[C@@H]1C(=O)N2C(C(=O)[O-])=C(COC(N)=O)CS[C@H]12)c1ccco1.[Na+] [CEFUROXIME SODIUM] | 64.47% | 83.34% |
| CC1=C(O)C(=O)C=C2C1=CC=C1[C@@]2(C)CC[C@@]2(C)[C@@H]3C[C@](C)(C(=O)O)CC[C@]3(C)CC[C@]12C [CELASTROL] | 147.4% | 90.72% |
| Cc1ccc(-c2cc(C(F)(F)F)nn2-c2ccc(S(N)(=O)=O)cc2)cc1 [CELECOXIB] | 108.3% | 142.8% |
| OC[C@H]1O[C@@H](O[C@H]2[C@H](O)[C@@H](O)[C@@H](O)O[C@@H]2CO)[C@H](O)[C@@H](O)[C@@H]1O [CELLBIOSE] | 90.6% | 109.6% |

| SMILES | residual activity [1] | residual activity [2] |
| --- | --- | --- |
| CN(C)CCOC(=O)COc1ccc(Cl)cc1.Cl [CENTROPHENOXINE HYDROCHLORIDE] | 70.12% | 88.3% |
| CC1=C(C(=O)O)N2C(=O)[C@@H](NC(=O)[C@H](N)c3ccccc3)[C@H]2SC1 [CEPHALEXIN ANHYDROUS] | 94.03% | 89.2% |
| O=C(Cc1cccs1)N[C@@H]1C(=O)N2C(C(=O)[O-])=C(C[n+]3ccccc3)CS[C@H]12 [CEPHALORIDINE] | 14.22% | 31.99% |
| COC1=C[C@]23CCCN2CCc2cc4c(cc2[C@@H]3[C@@H]1O)OCO4 [CEPHALOTAXINE] | 77.26% | 77.89% |
| CC(=O)OCC1=C(C(=O)[O-])N2C(=O)[C@@H](NC(=O)Cc3cccs3)[C@H]2SC1.[Na+] [CEPHALOTHIN SODIUM] | 45.11% | 66.3% |
| CC(=O)OCC1=C(C(=O)[O-])N2C(=O)[C@@H](NC(=O)CSc3ccncc3)[C@H]2SC1.[Na+] [CEPHAPIRIN SODIUM] | 85.65% | 94.33% |
| COc1ccc2cc1Oc1ccc(cc1)C[C@H]1c3c(cc4c(c3Oc3cc5c(cc3OC)CCN(C)[C@@H]5C2)OCO4)CCN1C [CEPHARANTHINE] | 91.94% | 125.1% |
| C/C=C(/C)C(=O)O[C@H]1CC[C@@]2(C)[C@@H]3CC[C@H]4[C@]5(O)C[C@H](O)[C@@]6(O)[C@@H](CN7C[C@@H](C)CC[C@H]7[C@@]6(C)O)[C@]5(O)C[C@@]42O[C@]13O [CEVADINE] | 78.54% | 84.71% |
| CCOC(=O)CCCCCCCCCCCCC1C=CCC1 (centres undefined) [CHAULMOOGRIC ACID, ETHYL ESTER] | 108.7% | 92.79% |
| O=C(O)CCCCCCCCCCCC[C@@H]1C=CCC1 [CHAULMOOGRIC ACID] | 83.53% | 82.39% |
| O=C(CCCCCCCCCCCCC1CCCC1)Nc1ccc(S(=O)(=O)c2ccc(NC(=O)CCCCCCCCCCCCC3CCCC3)cc2)cc1 [CHAULMOSULFONE] | 65.99% | 75.08% |
| CN1Cc2c(ccc3c2OCO3)C2C(O)Cc3cc4c(cc3C21)OCO4 (stereo not drawn) [CHELIDONINE (+)] | 59.5% | 82.29% |
| C[C@H](CCC(=O)O)[C@H]1CC[C@H]2[C@@H]3[C@H](O)C[C@@H]4C[C@H](O)CC[C@]4(C)[C@H]3CC[C@]12C [CHENODIOL] | 37.88% | 71.62% |
| O=C(O)CCCc1ccc(N(CCCl)CCCl)cc1 [CHLORAMBUCIL] | 123.9% | 102.7% |
| O=C1C(Cl)=C(Cl)C(=O)C(Cl)=C1Cl [CHLORANIL] | 80.53% | 74.83% |
| ClC1=C(Cl)C2(Cl)C3C(Cl)C(Cl)CC3C1(Cl)C2(Cl)Cl (centres undefined) [CHLORDANE] | 98.3% | 121.6% |
| CC(=O)O[C@]1(C(C)=O)CC[C@H]2[C@@H]3C=C(Cl)C4=CC(=O)CC[C@]4(C)[C@H]3CC[C@@]21C [CHLORMADINONE ACETATE] | 9.748% | 24.36% |
| CN1C(=O)CCS(=O)(=O)C1c1ccc(Cl)cc1 (centres undefined) [CHLORMEZANONE] | 97.47% | 92% |
| CC(=O)Oc1ccc(Cl)c2cccnc12 [CHLOROACETOXYQUINOLINE] | 90.22% | 92.5% |
| Cc1cc(O)ccc1Cl [CHLOROCRESOL] | 119.6% | 91.23% |
| O=C(/C=C/c1ccc(O)c(O)c1)O[C@@H]1C[C@](O)(C(=O)O)C[C@@H](O)[C@H]1O [CHLOROGENIC ACID] | 105.9% | 103.1% |
